In test [1] the test system is male Sprague-Dawley rats. Kind of test: Suture-induced MCAO (30 minutes) followed by 5.5 hours of reperfusion, infarct volume by TTC staining. The format is in vivo, rat. The settings on record: for infarct size / neuroprotection (infarct volume): 5.5 hours reperfusion; for infarct size: p<0.05, FIG. 7; for neuroprotective effect (infarct volume): vs vehicle, FIG. 9; for neuroprotection (infarct volume): inosine 16 mg/kg after 30 mins of occlusion prior to suture removal.

Test [2] relates to male Sprague-Dawley rats. In words: Suture-induced "permanent" (6-hour) MCAO, infarct volume by TTC staining. The format is in vivo, rat. The conditions noted are these: for infarct size: p<0.05, FIG. 6.

“Also recorded” adds a separate entry of the source.

On to `CC1=NN(c2ccccc2)C(=O)C1` [edaravone], for which the infarct size result is “significant decreases in infarct size; also recorded: showed neuroprotective abilities” in test [1] (edaravone 5, 10 or 20 mg/kg i.v. after 30 minutes of MCAO (immediately prior to suture removal), vs 50% DMSO in saline); “very powerful neuroprotection” in test [1] (edaravone 5, 10 or 20 mg/kg i.v. after 30 minutes of MCAO (immediately prior to suture removal), vs 50% DMSO in saline, listed as Edaravone); “significant decreases in infarct size; also recorded: significant levels of neuroprotection” in test [2] (edaravone 10, 20 or 40 mg/kg i.v. 30 minutes prior to 6 hours of suture induced-MCAO, vs vehicle 50% DMSO in saline).

With `Nc1nc2c(ncn2[C@@H]2O[C@H](CO)[C@@H](O)[C@H]2O)c(=O)[nH]1` [guanosine], the “neuroprotective effect (infarct volume)” value is “greatest benefit; also recorded: most prominent” in test [1] (guanosine 16 mg/kg injected 30 minutes (+30) after occlusion, immediately prior to suture removal) and “significant benefit; also recorded: significant neuroprotection” in test [1] (guanosine 16 mg/kg injected 60 minutes (+60) from start of MCAO, 30 minutes post-suture removal). Further, the infarct volume entry is given as “dose-dependent decrease in infarct volume” in test [1] (guanosine 1, 2, 4, 8 or 16 mg/kg intraperitoneally 30 minutes after MCAO (prior to suture removal), 5.5 h reperfusion, FIG. 8) and “decrease in infarct volume; also recorded: reduced infarct size” in test [2] (guanosine 1, 2, 4, 8 or 16 mg/kg intraperitoneally 30 minutes prior to "permanent" (6-hour) occlusion, FIG. 8).

Consider `OC[C@H]1O[C@@H](n2cnc3c(O)ncnc32)[C@H](O)[C@@H]1O` [inosine], for which the “neuroprotection (infarct volume)” value in test [1] (FIG. 8) was “No neuroprotection”; in test [1] (FIG. 8, listed as Inosine), “did not cause neuroprotection”.

In the case of estrogen, the infarct size entry in test [1] (estrogen 1×10-2 mg/kg i.v. 30 minutes after MCAO (immediately prior to suture removal), vs saline) is given as “significant decrease in infarct size”; in test [1] (estrogen 1×10-2 mg/kg i.v. 30 minutes after MCAO (immediately prior to suture removal), vs saline, listed as Estrogen) it was “showed neuroprotective abilities”; in test [2] (estrogen 1×10-2 mg/kg i.v. 30 minutes prior to 6 hours of suture induced-MCAO, vs estrogen vehicle (saline)) it was “significant decrease in infarct size; also recorded: significant levels of neuroprotection”.

(Values after patent US9086405B2, “Animal stroke model” (UNIVERSITY OF PRINCE EDWARD ISLAND, priority 2010, dated 2015).)
